Results reported in patent publication US20250289807A1, “Inhibitors of ROCK2” (Graviton Bioscience BV, priority 2022, published 2025).
Converted amounts (≈) assume the structure as drawn.

Columns and labels:
[1] = molecular target: ROCK1 (Homo sapiens (Human), UniProt Q13464); test: ADP-Glo kinase assay, ROCK1; type: biochemical; details: 10 μM ATP, 170 μM S6K substrate, 120 min
Experimental: (§1) ADP-Glo kinase assay (Promega). The ADP-Glo™ Kinase Assay is a luminescent ADP detection assay that allows measurement of kinase activity based on the amount of ADP produced during a kinase reaction. The kinase reaction is performed in the presence of ATP, S6K substrate ([…]) and the ROCK kinase in the appropriate Kinase Reaction Buffer (1×). Upon termination of the reaction, the unconsumed ATP is depleted by addition of ADP-Glo™ Reagent. Next, Kinase Detection Reagent is added to convert ADP to ATP and allow the newly synthesized ATP to be measured using a luciferase/luciferin reaction. The luminescence is proportional to the produced ADP and consequently to the kinase activity. The ADP-Glo™ Kinase Assay was performed in a 384 well plate format as follows.
(§2) Kinase Detection Reagent Preparation: The Kinase Detection Buffer was thawed at room temperature (RT). If a precipitate was present, the buffer was incubated at 37° C. with constant swirling for 15 minutes to dissolve the precipitate or the precipitate was removed from the buffer by carefully pipetting the supernatant from the bottle. After equilibrating both the Kinase Detection Buffer and Kinase Detection Substrate to room temperature, the entire volume of Kinase Detection Buffer was transferred into the bottle containing Kinase Detection Substrate to reconstitute the lyophilized substrate, followed by gentile mixing to obtain a homogeneous solution.
(§3) Kinase Reaction Buffer Preparation: Kinase reaction buffer was prepared freshly before each experiment.
(§4) ADP-Glo Reagents Preparation. Three mixes were prepared on ice before running the assay: • Mix 1—containing ROCK1 or ROCK2 in Kinase Reaction Buffer (1×) • Mix 2—containing S6K peptide in Kinase Reaction Buffer (1×) • Mix 3—containing ATP in Kinase Reaction Buffer (1×)
(§5) The ratios of reagent volumes in the assay were 1:1:2 of kinase reaction to ADP-Glo™ Reagent to Kinase Detection Reagent. For 384-well plates, volumes were: 5 μl of kinase reaction, 5 μl of ADP-Glo™ Reagent and 10 μl of Kinase Detection Reagent.
(§6) Generating a standard curve for conversion of ATP to ADP. To estimate the amount of ADP produced in the kinase reaction, a standard curve that represents the luminescence corresponding to the conversion of ATP to ADP was prepared based on the ATP concentration used in the kinase reaction. These conversion curves represent the amounts of ATP and ADP available in a reaction at the specified conversion percentage ranging from 100% conversion to 0% conversion. The standard samples used to generate an ATP-to-ADP conversion curve are created by combining the appropriate volumes of ATP and ADP stock solutions.
(§7) Each plate contained a positive control (1 μM Comp. A for ROCK2 and 1 μM RKI-1447 for ROCK1); a vehicle control (1% DMSO); a blank control (kinase reaction buffer (1×)); a low control (substrate and ATP, without kinase); and an autophosphorylation control (kinase and ATP, without substrate). Test and reference compounds were diluted in 100% DMSO to obtain 10 mM stock solutions. Each compound was tested in 8-serial dilutions in duplicate. The final concentration of DMSO in the reaction was 1% (up to 50 nL).
(§8) 5 μl/well Kinase Reaction Buffer (1×) was dispensed to blank control wells. 2 μl/well Kinase Reaction Buffer (1×) was dispensed to control without protein (low control) and without substrate (autophosphorylation) wells. The plate was sealed with adhesive film followed by a short spin (1 min, 1000 rpm).
(§9) 2 μl/well kinase (2.5×) solution was dispensed into relevant wells of the assay plate. The plate was sealed with adhesive film followed by a short spin (1 min, 1000 rpm).
(§10) The plate was sealed with adhesive film followed by a short spin (1 min, 1000 rpm).
(§11) 1 μl/well ATP (5×) solution was dispensed into relevant wells of the assay plate. The final volume of reaction was […]. The plate was sealed with adhesive film followed by a short spin (1 min, 1000 rpm).

[2] = molecular target: ROCK2 (Homo sapiens (Human), UniProt O75116); test: ADP-Glo kinase assay, ROCK2; type: biochemical; details: 40 μM ATP, 170 μM S6K substrate, 120 min
Experimental: as §1, §2, §3, §4, §5, §6, §7, §8, §9, §10, §11

[3] = Kinetic solubility; type: physicochemical; details: kinetic from dmso stock
[4] = tested on: IL-17 secretion in human CD4+ T cells; test: IL-17 secretion in Th17-skewed human CD4+ T cells (ELISA); type: cell-based; details: anti-CD3/28 mAbs, IL-1β (50 ng/mL) and TGF-β (5 ng/mL), 48 hours
Experimental: In this study, peripheral blood CD4^+ T cells were treated with the indicated doses of the ROCK2 inhibitors and then stimulated by anti-CD3/28 mAbs, IL-1β (50 ng/mL) and TGF-β (5 ng/mL) for 48 hours. The supernatants were analyzed for IL-17 by ELISA. One representative of three different experiments is shown.

[5] = tested on: STAT3 phosphorylation in human CD4+ T cells; test: STAT3 phosphorylation in Th17-skewed human CD4+ T cells (Western Blot); type: cell-based; details: stimulated 2 hours, FIG. 3
Experimental: (§12) In these studies, peripheral blood CD4^+ T cells were treated with indicated doses of inhibitors and then stimulated by anti-CD3/28 mAbs, IL-1β (50 ng/mL) and TGF-β (5 ng/mL) for 2 hours. The cell lysates were prepared and analyzed by Western Blot. One representative of three different experiments is shown.

[6] = tested on: pCofilin in human CD4+ T cells; test: pCofilin in human CD4+ T cells (Western Blot); type: cell-based; details: stimulated 2 hours, FIG. 4
Experimental: as §12

[7] = tested on: human lung fibroblast MRC-5 cells; test: TGF-β-induced pro-fibrogenic gene expression in MRC-5 fibroblasts (RT-PCR); type: cell-based; details: MRC-5, TGF-β1 2.5 ng/mL, 48 hours, FIG. 5
Experimental: (§13) ROCKs are activated by small GTPase Rho in response to a variety of profibrotic signals and regulate cytoskeletal dynamics, activation of different down-stream intracellular targets and expression of key profibrotic genes, such as fibronectin, smooth muscle actin (α-SMA) and collagen 3 (Col3A1).
(§14) In these studies, human lung fibroblast MRC-5 cells were acquired from American Type Culture Collection (ATCC) and cultured in MEM supplemented with 10% fetal bovine serum. The cells were seeded in 24-well cell culture plates at 50,000/mL/well. On the following day, the cells were starved in MEM containing 0.5% FBS for overnight. […] Cellular mRNA was isolated and mRNA expression of indicated genes (fibronectin, αSMA and col3A) was analyzed by RT-PCR (FIG. 5). Secreted pro-collagen 1a (Col1A1) in supernatants was measured by ELISA (FIG. 6).

[8] = tested on: human lung fibroblast MRC-5 cells; test: Col1A protein secretion in MRC-5 supernatants (ELISA); type: cell-based; details: MRC-5, TGF-β1 2.5 ng/mL, 48 hours, FIG. 6
Experimental: as §13, §14

[9] = tested on: Human subcutaneous adipocytes; test: Adipogenesis in primary human adipocytes (Oil Red staining); type: cell-based; details: adipogenic cocktail, 10 days, Oil Red absorbance, FIG. 7
Experimental: Adipogenesis is a multi-step complex process, progressing from precursor stem cells to adipocytes that synthesize and store fat. […] ROCKs have been implicated in regulation of adipocyte differentiation, however the isoform-specific contribution to adipogenesis and other metabolic pathways is not well characterized. […] In this study, Human subcutaneous adipocytes were grown to confluence before induction to differentiation by adipogenic cocktail (0.1 μM dexamethasone, 1 μM insulin, 200 μM indomethacin, 250 μM isobutyl methylxanthine (IBMX)) in the presence of indicated concentrations of Ex. 1 or Ex. 2 for 10 days. Differentiated cells were stained by Oil Red which was extracted by isopropanol and measured by absorbance at 492 nm.

Sequence of ROCK2 (O75116 whole entry): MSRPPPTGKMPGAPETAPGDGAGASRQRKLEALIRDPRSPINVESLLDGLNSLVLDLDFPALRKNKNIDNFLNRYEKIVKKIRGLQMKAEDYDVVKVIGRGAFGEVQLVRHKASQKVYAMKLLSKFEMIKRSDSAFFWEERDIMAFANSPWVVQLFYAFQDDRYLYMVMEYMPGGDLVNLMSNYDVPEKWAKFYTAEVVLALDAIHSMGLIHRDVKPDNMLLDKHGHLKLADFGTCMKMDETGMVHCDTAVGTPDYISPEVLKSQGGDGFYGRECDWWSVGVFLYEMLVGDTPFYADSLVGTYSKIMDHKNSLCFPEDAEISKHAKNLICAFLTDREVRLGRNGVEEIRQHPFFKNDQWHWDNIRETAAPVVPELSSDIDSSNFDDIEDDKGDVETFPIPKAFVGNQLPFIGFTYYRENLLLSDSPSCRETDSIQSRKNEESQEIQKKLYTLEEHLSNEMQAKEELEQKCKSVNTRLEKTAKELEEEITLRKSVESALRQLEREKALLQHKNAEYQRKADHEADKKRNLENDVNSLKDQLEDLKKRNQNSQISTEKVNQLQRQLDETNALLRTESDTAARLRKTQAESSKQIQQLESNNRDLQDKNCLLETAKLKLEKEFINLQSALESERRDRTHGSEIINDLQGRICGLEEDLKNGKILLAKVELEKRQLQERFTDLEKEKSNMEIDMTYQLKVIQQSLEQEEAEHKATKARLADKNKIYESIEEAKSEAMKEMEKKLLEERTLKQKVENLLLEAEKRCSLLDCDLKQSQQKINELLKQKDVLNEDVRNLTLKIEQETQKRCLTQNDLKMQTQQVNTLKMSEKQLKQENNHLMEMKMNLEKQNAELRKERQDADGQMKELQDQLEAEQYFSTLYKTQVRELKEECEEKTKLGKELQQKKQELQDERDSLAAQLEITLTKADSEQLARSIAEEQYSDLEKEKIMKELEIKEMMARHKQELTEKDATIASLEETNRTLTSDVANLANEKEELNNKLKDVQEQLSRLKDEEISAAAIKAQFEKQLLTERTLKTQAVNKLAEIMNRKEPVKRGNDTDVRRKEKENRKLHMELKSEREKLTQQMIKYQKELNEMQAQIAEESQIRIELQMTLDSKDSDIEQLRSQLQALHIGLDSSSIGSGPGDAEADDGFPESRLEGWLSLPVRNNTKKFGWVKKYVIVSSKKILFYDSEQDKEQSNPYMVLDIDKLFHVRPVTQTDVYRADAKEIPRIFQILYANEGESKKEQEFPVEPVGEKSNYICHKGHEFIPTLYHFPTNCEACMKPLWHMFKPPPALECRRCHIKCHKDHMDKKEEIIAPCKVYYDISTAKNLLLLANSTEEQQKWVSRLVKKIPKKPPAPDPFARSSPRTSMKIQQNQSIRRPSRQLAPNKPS
Sequence of ROCK1 (Q13464 whole entry): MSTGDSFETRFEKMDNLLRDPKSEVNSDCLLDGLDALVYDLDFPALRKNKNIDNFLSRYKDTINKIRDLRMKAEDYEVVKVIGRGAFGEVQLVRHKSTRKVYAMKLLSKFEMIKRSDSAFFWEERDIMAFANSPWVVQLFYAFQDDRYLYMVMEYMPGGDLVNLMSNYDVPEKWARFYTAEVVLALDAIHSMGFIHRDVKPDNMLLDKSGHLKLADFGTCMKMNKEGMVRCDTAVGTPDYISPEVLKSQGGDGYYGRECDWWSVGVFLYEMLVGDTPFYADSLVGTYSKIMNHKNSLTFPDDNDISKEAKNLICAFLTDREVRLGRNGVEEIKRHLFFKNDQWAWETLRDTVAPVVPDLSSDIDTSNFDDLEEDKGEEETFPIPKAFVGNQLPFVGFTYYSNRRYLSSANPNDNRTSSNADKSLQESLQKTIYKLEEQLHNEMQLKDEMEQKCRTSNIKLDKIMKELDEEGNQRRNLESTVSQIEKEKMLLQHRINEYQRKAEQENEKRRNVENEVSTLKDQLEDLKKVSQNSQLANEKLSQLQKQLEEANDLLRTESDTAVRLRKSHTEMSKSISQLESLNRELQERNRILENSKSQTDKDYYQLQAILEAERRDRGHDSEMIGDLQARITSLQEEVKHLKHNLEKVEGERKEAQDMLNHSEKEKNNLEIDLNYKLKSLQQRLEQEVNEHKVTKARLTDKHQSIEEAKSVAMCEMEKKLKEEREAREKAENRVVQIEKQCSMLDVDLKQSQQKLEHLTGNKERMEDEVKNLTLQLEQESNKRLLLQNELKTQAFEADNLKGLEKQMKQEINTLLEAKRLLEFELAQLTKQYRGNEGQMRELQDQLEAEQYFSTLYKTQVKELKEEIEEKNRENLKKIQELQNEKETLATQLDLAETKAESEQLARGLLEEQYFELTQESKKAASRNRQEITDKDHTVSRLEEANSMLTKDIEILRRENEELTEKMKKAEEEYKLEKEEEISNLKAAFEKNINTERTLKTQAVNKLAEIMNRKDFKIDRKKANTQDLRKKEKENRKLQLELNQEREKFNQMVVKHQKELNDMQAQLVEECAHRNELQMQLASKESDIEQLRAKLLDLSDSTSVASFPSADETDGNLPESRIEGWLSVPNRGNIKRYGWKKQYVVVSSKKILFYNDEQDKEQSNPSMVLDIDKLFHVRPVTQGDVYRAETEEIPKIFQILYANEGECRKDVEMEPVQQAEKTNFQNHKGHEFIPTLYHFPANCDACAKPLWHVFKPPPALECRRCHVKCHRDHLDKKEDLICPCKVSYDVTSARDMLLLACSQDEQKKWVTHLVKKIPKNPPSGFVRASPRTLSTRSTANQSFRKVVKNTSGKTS

Row | Compound | IC50 [1] | IC50 [2] | also measured
1 | C[C@H](NC(=O)c1cc2ccc(-c3nccc(Nc4ccc(-c5cnc[nH]5)cc4)n3)cc2n1CC1COC1)C(F)(F)F [Example 10] | 4000 nM |  | 
2 | O=C(c1cc2c(s1)CN(c1nccc(Nc3ccc(-c4cnc[nH]4)cc3)n1)CC2)N1CCC(F)(F)C1 [Example 25] | 6850 nM |  | 
3 | CN(C)CCn1c(C(=O)N2CCC(F)(F)C2)cc2ccc(-c3nccc(Nc4ccc(-c5cnc[nH]5)cc4)n3)cc21 [Example 13] | 4290 nM | 10000 nM | 
4 | C[C@H](NC(=O)c1cc2ccc(-c3nccc(Nc4ccc(-c5cnc[nH]5)cc4)n3)cc2n1CCN(C)C)C(F)(F)F [Example 8] | 10700 nM |  | 
5 | Cn1c(C(=O)N2CC(F)(F)C2)cc2ccc(-c3nccc(Nc4ccc(-c5cn[nH]c5)cc4)n3)cc21 [Comp. A, reference compound] | 3210 nM | 2.29 nM | solubility kinetic [3]: < 1.9 µg/mL
6 | O=C(c1nc2ccc(-c3nccc(Nc4ccc(-c5cn[nH]n5)cc4)n3)cc2[nH]1)N1CC(F)(F)C1 [Example 22] | 25200 nM |  | 
7 | Cn1c(C(=O)N2CC(F)(F)C2)cc2ccc(-c3nccc(Nc4ccc(-c5c[nH]nn5)cc4)n3)cc21 [Example 2, 2-[2-(3,3-difluoroazetidine-1-carbonyl)-1-methyl-1H-indol-6-yl]-N-[4-(1H-1,2,3-triazol-4-yl)phenyl]pyrimidin-4-amine] | > 50000 nM |  | solubility kinetic [3]: 2.69 µg/mL (≈ 5.53 µM); EC50 [4]: 764 nM; STAT3 phosphorylation induced by Th17-skewing activation [5]: down-regulate STAT3 phosphorylation; pCofilin [6]: down-regulate pCofilin; TGF-β-induced Col3A1 gene expression [7]: down-regulate dose-dependently; TGF-β-induced fibronectin gene expression [7]: down-regulate dose-dependently; TGF-β-induced α-SMA gene expression [7]: down-regulate dose-dependently; Col1A protein production in supernatants [8]: down-regulate dose-dependently; adipogenesis [9]: down-regulate adipogenesis in a dose-dependent manner
8 | Cn1c(C(=O)N2CCCC2)cc2ccc(-c3nccc(Nc4ccc(-c5cnc[nH]5)cc4)n3)cc21 [Example 12] | 2280 nM | 10000 nM | 
9 | CN(C)CCn1c(C(=O)N2CCC(F)(F)C2)cc2ccc(-c3nccc(Nc4ccc(-c5cn[nH]n5)cc4)n3)cc21 [Example 18] | 23200 nM |  | 
10 | Cn1c(C(=O)N2CCCC2)cc2ccc(-c3nccc(Nc4ccc(-c5cn[nH]n5)cc4)n3)cc21 [Example 16] | 792 nM |  | 
11 | O=C(c1cc2c(s1)CN(c1nccc(Nc3ccc(-c4c[nH]nn4)cc3)n1)CC2)N1CC(F)(F)C1 [Example 3′, 2-[2-(3,3-difluoroazetidine-1-carbonyl)-4H,5H,6H,7H-thieno[2,3-c]pyridin-6-yl]-N-[4-(1H-1,2,3-triazol-4-yl)phenyl]pyrimidin-4-amine] | 2730 nM | 961 nM | 
12 | O=C(c1cc2c(s1)CN(c1nccc(Nc3ccc(-c4cnn[nH]4)cc3)n1)CC2)N1CC2C(C1)C2(F)F (stereo not drawn) [Example 24] | 1220 nM | 207 nM | 
13 | CN(C)C(=O)Cn1c(C(=O)N2CC(F)(F)C2)cc2ccc(-c3nccc(Nc4ccc(-c5cnc[nH]5)cc4)n3)cc21 [Example 4] | > 50000 nM |  | 
14 | C[C@H](NC(=O)c1cc2ccc(-c3nccc(Nc4ccc(-c5cnc[nH]5)cc4)n3)cc2n1C)C(F)(F)F [Example 9] | 746 nM |  | 
15 | O=C(c1cc2ccc(-c3nccc(Nc4ccc(-c5cn[nH]n5)cc4)n3)cc2o1)N1CC(F)(F)C1 [Example 19] | 2010 nM | 10000 nM | 
16 | CN(C)CCn1c(C(=O)N2CC(F)(F)C2)cc2ccc(-c3nccc(Nc4ccc(-c5cn[nH]n5)cc4)n3)cc21 [Example 15] | 281 nM |  | 
17 | Cn1c(C(=O)N2CCC(F)(F)C2)cc2ccc(-c3nccc(Nc4ccc(-c5cnc[nH]5)cc4)n3)cc21 [Example 7] | 2100 nM |  | 
18 | Cn1c(C(=O)N2CC(F)(F)C2)cc2ccc(-c3nccc(Nc4ccc(-c5cnc[nH]5)cc4)n3)cc21 [Example 1, 2-[2-(3,3-difluoroazetidine-1-carbonyl)-1-methyl-1H-indol-6-yl]-N-[4-(1H-imidazol-5-yl)phenyl]pyrimidin-4-amine] | > 50000 nM |  | solubility kinetic [3]: 2.2 µg/mL (≈ 4.53 µM); EC50 [4]: 838 nM; STAT3 phosphorylation induced by Th17-skewing activation [5]: down-regulate STAT3 phosphorylation; pCofilin [6]: down-regulate pCofilin; TGF-β-induced Col3A1 gene expression [7]: down-regulate dose-dependently; TGF-β-induced fibronectin gene expression [7]: down-regulate dose-dependently; TGF-β-induced α-SMA gene expression [7]: down-regulate dose-dependently; Col1A protein production in supernatants [8]: down-regulate dose-dependently; adipogenesis [9]: down-regulate adipogenesis in a dose-dependent manner
19 | O=C(c1cc2c(s1)CN(c1nccc(Nc3ccc(-c4cnc[nH]4)cc3)n1)CC2)N1CC2C(C1)C2(F)F (stereo not drawn) [Example 23] | 8910 nM | 334 nM | 
